Laboratory results published in US20200032163A1, “Method for the Virus Inactivation of a Preparation of Monoclonal Antibodies” (Laboratoire Francais du Fractionnement et des …, priority 2016, published 2020).

Tests used:
[1] = Adsorption of polysorbate 80 and TnBP by the multilayer film of the 75 mL flexible bag (HPLC)
[2] = Distribution of the concentration of Triton X-100 in a 50 L bag (RP-HPLC); type: physicochemical; details: 1% Triton X-100 in purified water
[3] = Adsorption of Triton X-100 by the multilayer film of the 75 mL flexible bag (HPLC); type: physicochemical; details: 120 minutes
Procedure: In parallel, a negative control was carried out, repeating the experiment in a 0.5 litre glass flask filled with 316 mL of a 1% Triton X-100® solution. […] Samples were taken after 0 and 120 minutes.

[4] = Bag according to the invention, 30 min, 25±3° C.
[5] = Bag according to the invention, 1 hour, 25±3° C.
[6] = Bag according to the invention, 2 hours, 25±3° C.

| Substance | adsorption by the bag ([1]; 75 mL flexible bag, 2 hours, 25±3° C.) | Polysorbate 80 Concentration ([1]; Bag according to the invention, 0 min, 25±3° C.) [mg/L] | Polysorbate 80 Adsorption with respect to T0 [1, 4] [%] | Polysorbate 80 Concentration [1, 4] [mg/L] | Polysorbate 80 Adsorption with respect to T0 [1, 5] [%] | Polysorbate 80 Concentration [1, 5] [mg/L] | Polysorbate 80 Adsorption with respect to T0 [1, 6] [%] | Polysorbate 80 Concentration [1, 6] [mg/L] | Polysorbate 80 Concentration ([1]; Glass flask (negative control), 30 min) [mg/L] | concentration after 2 hours of incubation ([1]; in the bag or in the glass flask) | greatest difference observed between the lower and higher concentrations measured ([2]; 0 to 120 minutes) [%] | difference in concentration of Triton X-100 between the upper part and the bottom of the bag ([2]; stirring 40 rpm) [%] | reduction of the concentration of Triton X-100 ([3]; 0.5 litre glass flask (negative control), 1% solution, magnetic stirring) [%] | adsorption of the Triton X-100 by the bag ([3]; 75 mL flexible bag, 1% (w/w) solution) | reduction of the concentration of Triton X-100 ([3]; 75 mL flexible bag, 1% (w/w) solution, orbital stirring, 20±5° C.) [%] |
| --- | --- | --- | --- | --- | --- | --- | --- | --- | --- | --- | --- | --- | --- | --- | --- |
| polyethylene glycol monooleate [Polysorbate 80] | no significant adsorption | 11147 | −2.3 | 11408 | −3.3 | 11519 | −2.6 | 11432 | 10374 | stable |  |  |  |  |  |
| polyethylene glycol tert-octylphenyl ether [Triton X-100®] |  |  |  |  |  |  |  |  |  |  | 7.90 | 2.7 | 3.1 | no significant adsorption | 5 |
